In ChEMBL document CHEMBL4725233, “Anti-inflammatory principles from Lindera aggregata” (Bioorg Med Chem Lett, 2020):

Experiments:
Neutrophil [1] = assay: Antiinflammatory activity in human neutrophils assessed as inhibition of fMLF/cytochalasin B-induced superoxide anion generation at 10 uM preincubated for 5 mins followed by fMLF addition after priming with CB for 3 mins by spectrophotometric analysis relative to control; format: functional
Neutrophil [2] = assay: Antiinflammatory activity in human neutrophils assessed as inhibition of fMLF/cytochalasin B-induced superoxide anion generation preincubated for 5 mins followed by fMLF addition after priming with CB for 3 mins by spectrophotometric analysis; format: functional, cell-based

SMILES | inhibition at 10 µM (Neutrophil [1]) [%] | IC50 (Neutrophil [2]) [µM]
COc1cc2c(cc1O)C[C@H]1c3c(cc(OC)c(O)c3-2)CCN1C [ISOBOLDINE] | > 50 | 5.81
O=c1c(-c2ccc(O)cc2)coc2cc(O)cc(O)c12 [GENISTEIN] | – | 1.11
C=C1O[C@@H]2[C@@H](OC(C)=O)C3=C(C)C(=O)OC3=C[C@@]2(C)[C@@H]2C[C@H]12 | > 50 | 7.45
COc1cc2c(cc1O)C[C@H]1c3c(cc(OC)c(OC)c3-2)CCN1C | > 50 | 8.36
